US9409908B2 (priority 2012, dated 2016)
Counter-ions that a name gives are not always drawn. Like-named read-outs stand apart in the source and are kept apart here.

Tests used:
[1] = biological target: purified human Factor XIa (Homo sapiens (Human), UniProt P03951); test: biochemical; format: biochemical
[2] = biological target: purified human plasma kallikrein (Homo sapiens (Human), UniProt P03952); test: biochemical; format: biochemical
Chain of purified human plasma kallikrein (P03952 whole entry, looked up): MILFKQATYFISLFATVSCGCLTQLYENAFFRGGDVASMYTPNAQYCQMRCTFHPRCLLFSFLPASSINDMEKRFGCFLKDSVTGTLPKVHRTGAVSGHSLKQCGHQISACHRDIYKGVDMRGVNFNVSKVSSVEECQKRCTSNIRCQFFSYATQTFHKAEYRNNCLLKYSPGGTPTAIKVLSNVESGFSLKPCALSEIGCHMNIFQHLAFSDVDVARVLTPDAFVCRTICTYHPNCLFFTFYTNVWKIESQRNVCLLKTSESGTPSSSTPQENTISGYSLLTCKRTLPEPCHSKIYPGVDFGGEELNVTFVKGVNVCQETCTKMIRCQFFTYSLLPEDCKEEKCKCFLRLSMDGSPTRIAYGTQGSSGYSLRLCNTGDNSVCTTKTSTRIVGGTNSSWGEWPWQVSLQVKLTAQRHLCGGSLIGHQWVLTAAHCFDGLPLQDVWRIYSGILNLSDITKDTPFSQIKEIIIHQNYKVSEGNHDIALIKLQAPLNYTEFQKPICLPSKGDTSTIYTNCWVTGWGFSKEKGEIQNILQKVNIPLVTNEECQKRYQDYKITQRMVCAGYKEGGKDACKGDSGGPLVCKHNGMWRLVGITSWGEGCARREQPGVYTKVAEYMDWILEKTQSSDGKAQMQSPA
Chain of purified human plasma kallikrein (P03952 whole entry partner, looked up): as the sequence (P03952 whole entry, looked up) above

Chain of purified human Factor XIa (P03951 whole entry, looked up): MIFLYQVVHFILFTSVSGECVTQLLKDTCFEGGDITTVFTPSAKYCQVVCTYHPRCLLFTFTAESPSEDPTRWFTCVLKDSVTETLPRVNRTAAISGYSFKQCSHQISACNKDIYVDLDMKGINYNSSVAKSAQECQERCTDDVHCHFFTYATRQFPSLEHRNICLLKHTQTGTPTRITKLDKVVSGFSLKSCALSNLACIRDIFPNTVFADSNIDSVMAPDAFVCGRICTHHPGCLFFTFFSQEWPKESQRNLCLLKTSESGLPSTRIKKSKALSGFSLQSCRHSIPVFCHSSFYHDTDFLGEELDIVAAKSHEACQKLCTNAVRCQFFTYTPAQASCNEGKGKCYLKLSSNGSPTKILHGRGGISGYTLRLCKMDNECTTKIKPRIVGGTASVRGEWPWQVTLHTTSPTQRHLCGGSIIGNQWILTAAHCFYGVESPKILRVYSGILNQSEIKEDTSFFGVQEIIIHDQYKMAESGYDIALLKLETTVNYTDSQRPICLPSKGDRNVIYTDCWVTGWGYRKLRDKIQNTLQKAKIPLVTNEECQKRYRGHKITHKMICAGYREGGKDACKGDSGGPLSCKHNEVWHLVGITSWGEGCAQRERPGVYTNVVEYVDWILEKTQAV
Chain of purified human Factor XIa (P03951 whole entry partner, looked up): as the sequence (P03951 whole entry, looked up) above

Structure (SMILES) | Ki ([1]; read-out: Factor XIa Ki) [nM] | Ki ([2]; read-out: Plasma Kallikrein Ki) [nM] | Ki [1] [nM] | Ki ([2]; Plasma Kallikrein Ki) [nM]
Cc1[nH]c2cc3c(cc2c1C(=O)O)-c1ccnc(c1)[C@@H](N1CCC(c2c(F)ccc(Cl)c2F)=CC1=O)CCC[C@@H](C)C(=O)N3 [Example 83, (13R,17S)-17-[4-(3-Chloro-2,6-difluorophenyl)-6-oxo-1,2,3,6-tetrahydropyridin-1-yl]-6,13-dimethyl-12-oxo-7,11,19-triazatetracyclo[16.3.1.0^2,10.0^4,8]docosa-1(22),2,4(8),5,9,18,20-heptaene-5-carboxylic acid, TFA salt] | 0.06 | 7 |  | 
C[C@@H]1CCC[C@H](N2CCC(c3c(F)ccc(Cl)c3F)=CC2=O)c2cc(ccn2)-c2ccc(Nc3ccccn3)cc2NC1=O [Example 88, (10R,14S)-14-[4-(3-Chloro-2,6-difluorophenyl)-6-oxo-1,2,3,6-tetrahydropyridin-1-yl]-10-methyl-5-[(pyridin-2-yl)amino]-8,16-diazatricyclo[13.3.1.0^2,7]nonadeca-1(19),2(7),3,5,15,17-hexaen-9-one, 2TFA salt] | 1.04 | 5 |  | 
C[C@@H]1CCC[C@H](N2CCC(c3c(C#N)ccc(Cl)c3F)=CC2=O)c2cc(ccn2)-c2cc(F)ccc2NC1=O [Example 150, 4-chloro-3-fluoro-2-{1-[(10R,14S)-4-fluoro-10-methyl-9-oxo-8,16-diazatricyclo[13.3.1.0^2,7]nonadeca-1(19),2(7),3,5,15,17-hexaen-14-yl]-6-oxo-1,2,3,6-tetrahydropyridin-4-yl}benzonitrile] | 0.99 | 2.27 |  | 
COC(=O)Nc1ccc2c(c1)NC(=O)[C@H](C)CCC[C@H](N1CC(C)C(c3c(F)ccc(Cl)c3F)=CC1=O)c1cc-2ccn1 (single isomer, unassigned; isomer 1) [Example 177] |  |  | 0.8 | 4.02
COC(=O)Nc1ccc2c(c1)NC(=O)[C@H](C)CCC[C@H](N1CCC(c3nccc(Cl)c3OC)=CC1=O)c1cc-2cc(OC)n1 [Example 6, Methyl N-[(10R,14S)-14-[4-(4-chloro-3-methoxypyridin-2-yl)-6-oxo-1,2,3,6-tetrahydropyridin-1-yl]-17-methoxy-10-methyl-9-oxo-8,16-diazatricyclo[13.3.1.0^2,7]nonadeca-1(18),2,4,6,15(19),16-hexaen-5-yl]carbamate, TFA salt] | 158 | 303 |  | 
COC(=O)Nc1ccc2c(c1)NC(=O)[C@H](C)CCC[C@H](N1CCC(C3CCCC(C)C3)=CC1=O)c1cc-2ccn1 (stereo partly drawn) [Example 159, Methyl N-[(10R,14S)-10-methyl-14-[4-(3-methylcyclohexyl)-6-oxo-1,2,3,6-tetrahydropyridin-1-yl]-9-oxo-8,16-diazatricyclo[13.3.1.0^2,7]nonadeca-1(19),2,4,6,15,17-hexaen-5-yl]carbamate, TFA salt (diastereomeric isomers)] | 63.2 | 58.9 |  | 
COC(=O)Nc1ccc2c(c1)NC(=O)[C@H](C)CCC[C@H](N1CCC(c3cccc(Cl)c3OC)=CC1=O)c1cc-2ccn1 [Example 118, Methyl N-[(10R,14S)-14-[4-(3-chloro-2-methoxyphenyl)-6-oxo-1,2,3,6-tetrahydropyridin-1-yl]-10-methyl-9-oxo-8,16-diazatricyclo[13.3.1.0^2,7]nonadeca-1(18),2,4,6,15(19),16-hexaen-5-yl]carbamate] | > 404 | 2030 |  | 
COC(=O)Nc1ccc2c(c1)NC(=O)[C@H](C)CCC[C@H](N1CCC(c3ccccc3OC)=CC1=O)c1cc-2ccn1 [Example 116, Methyl N-[(10R,14S)-14-[4-(2-methoxyphenyl)-6-oxo-1,2,3,6-tetrahydropyridin-1-yl]-10-methyl-9-oxo-8,16-diazatricyclo[13.3.1.0^2,7]nonadeca-1(18),2,4,6,15(19),16-hexaen-5-yl]carbamate] | 267 | 739 |  | 
Cc1nnc(Nc2ccc3c(c2)NC(=O)[C@H](C)CCC[C@H](N2CCC(c4c(F)ccc(Cl)c4F)=CC2=O)c2cc-3ccn2)o1 [Example 21, (10R,14S)-14-[4-(3-Chloro-2,6-difluorophenyl)-6-oxo-1,2,3,6-tetrahydropyridin-1-yl]-10-methyl-5-[(5-methyl-1,3,4-oxadiazol-2-yl)amino]-8,16-diazatricyclo[13.3.1.0^2,7]nonadeca-1(19),2(7),3,5,15,17-hexaen-9-one, TFA salt] | 0.46 | 1 |  | 
C[C@@H]1CCC[C@H](N2CCC(c3c(F)ccc(Cl)c3F)=CC2=O)c2cc(ccn2)-c2ccc(Nc3cccnc3)cc2NC1=O [Example 195, (10R,14S)-14-[4-(3-chloro-2,6-difluorophenyl)-6-oxo-1,2,3,6-tetrahydropyridin-1-yl]-10-methyl-5-[(pyridin-3-yl)amino]-8,16-diazatricyclo[13.3.1.0^2,7]nonadeca-1(19),2(7),3,5,15,17-hexaen-9-one, 3 TFA salt] | 0.47 | 2.96 |  | 
COC(=O)Nc1ccc2c(c1)NC(=O)[C@H](C)CCC[C@H](N1CCC(c3cccc(Cl)n3)=CC1=O)c1cc-2ccn1 [Example 157, Methyl N-[(10R,14S)-14-[4-(6-chloropyridin-2-yl)-6-oxo-1,2,3,6-tetrahydropyridin-1-yl]-10-methyl-9-oxo-8,16-diazatricyclo[13.3.1.0^2,7]nonadeca-1(19),2,4,6,15,17-hexaen-5-yl]carbamate, 2 TFA salt] | 74.9 | 108 |  | 
C[C@@H]1CCC[C@H](N2CCC(c3c(N)ccc(Cl)c3F)=CC2=O)c2cc(ccn2)-c2ccccc2NC1=O [Example 66, (10R,14S)-14-[4-(6-Amino-3-chloro-2-fluorophenyl)-6-oxo-1,2,3,6-tetrahydropyridin-1-yl]-10-methyl-8,16-diazatricyclo[13.3.1.0^2,7]nonadeca-1(19),2,4,6,15,17-hexaen-9-one, TFA salt] | 66.6 | 45 |  | 
COC(=O)c1ccc2c(c1)-c1cccc(c1)[C@H](N1CCC(c3c(F)ccc(Cl)c3F)=CC1=O)CCC[C@@H](C)C(=O)N2 [Example 165, Methyl (10R,14R)-14-[4-(3-chloro-2,6-difluorophenyl)-6-oxo-1,2,3,6-tetrahydropyridin-1-yl]-10-methyl-9-oxo-8-azatricyclo[13.3.1.0^2,7]nonadeca-1(19),2,4,6,15,17-hexaene-4-carboxylate] | > 398 | 9470 |  | 
COC(=O)Nc1ccc2c(c1)NC(=O)[C@H](C)CCC[C@H](N1CCC(c3c(Br)ccc(Cl)c3F)=CC1=O)c1cccc-2c1 [Example 161, Methyl N-[(10R,14S)-14-[4-(6-bromo-3-chloro-2-fluorophenyl)-6-oxo-1,2,3,6-tetrahydropyridin-1-yl]-10-methyl-9-oxo-8-azatricyclo[13.3.1.0^2,7]nonadeca-1(19),2,4,6,15,17-hexaen-5-yl]carbamate] | 0.59 | 21.6 |  | 
COC(=O)Nc1ccc2c(c1)C(=O)NCC/C=C/C[C@H](N1CCC(c3c(F)ccc(Cl)c3F)=CC1=O)c1cc-2ccn1 [Example 216, Methyl N-[(12E,15S)-15-[4-(3-chloro-2,6-difluorophenyl)-6-oxo-1,2,3,6-tetrahydropyridin-1-yl]-8-oxo-9,17-diazatricyclo[14.3.1.0^2,7]icosa-1(20),2(7),3,5,12,16,18-heptaen-5-yl]carbamate, TFA salt] | 264 | 212 |  | 
